Measurements: paper PMC7413254 (Nature Communications, 2020)

Legend:
Type in all cases: cell-based
PfCRT^Dd2 [1] = biological target: T1, PfCRT^Dd2 (Plasmodium falciparum, UniProt Q9N623, A220S/I356T/K76T/M74I/N326S/N75E/Q271E/R371I); assay: cell-based; conditions: for PfCRT-mediated [3H]CQ transport, trans-stimulation (% PfCRTDd2 control): PfCRTDd2 oocytes, normalised to oocyte type control; for [3H]CQ transport (% PfCRTDd2 control), trans-stimulation, PfCRTDd2: PfCRT-mediated component (background subtracted), mean ± SEM, SEM
T1 sequence (Q9N623 whole entry A220S/I356T/K76T/M74I/N326S/N75E/Q271E/R371I): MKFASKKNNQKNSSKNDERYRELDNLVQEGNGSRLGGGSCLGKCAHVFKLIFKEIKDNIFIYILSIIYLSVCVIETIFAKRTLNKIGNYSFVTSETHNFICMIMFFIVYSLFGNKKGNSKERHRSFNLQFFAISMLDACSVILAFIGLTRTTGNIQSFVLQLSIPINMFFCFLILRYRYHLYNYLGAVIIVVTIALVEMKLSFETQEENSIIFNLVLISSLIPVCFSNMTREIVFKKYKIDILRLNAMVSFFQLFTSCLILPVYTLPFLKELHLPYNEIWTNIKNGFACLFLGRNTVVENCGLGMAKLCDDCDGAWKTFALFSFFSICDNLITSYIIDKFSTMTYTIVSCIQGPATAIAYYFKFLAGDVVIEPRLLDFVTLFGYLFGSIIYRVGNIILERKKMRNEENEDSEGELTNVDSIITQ
Procedure, shortened: (§1)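 Oocytes (ten per treatment, ≥4 independent frogs/days) were preloaded by injecting VF-6 in 25 nL ND96 at pH 5.0, 5.5, 6.0 or 7.0, or Na^+-free choline buffer, then uptake run 1.5 h, 27.5 °C, ND96 pH 5.5 by default. Internal concentrations assumed ~400 nL oocyte volume.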

PfCRT^Ecu1110 [2] = biological target: T2, PfCRT^Ecu1110 (Plasmodium falciparum, UniProt Q9N623, A220S/I356L/K76T/N326D); assay: cell-based; conditions: for PfCRT-mediated [3H]CQ transport, trans-stimulation (% PfCRTEcu1110 control): PfCRTEcu1110 oocytes, normalised to oocyte type control; for [3H]CQ transport (% PfCRTDd2 control), trans-stimulation, PfCRTEcu1110: PfCRT-mediated component (background subtracted), sheet title says normalised to PfCRTDd2 control, mean ± SEM, SEM
T2 sequence (Q9N623 whole entry A220S/I356L/K76T/N326D): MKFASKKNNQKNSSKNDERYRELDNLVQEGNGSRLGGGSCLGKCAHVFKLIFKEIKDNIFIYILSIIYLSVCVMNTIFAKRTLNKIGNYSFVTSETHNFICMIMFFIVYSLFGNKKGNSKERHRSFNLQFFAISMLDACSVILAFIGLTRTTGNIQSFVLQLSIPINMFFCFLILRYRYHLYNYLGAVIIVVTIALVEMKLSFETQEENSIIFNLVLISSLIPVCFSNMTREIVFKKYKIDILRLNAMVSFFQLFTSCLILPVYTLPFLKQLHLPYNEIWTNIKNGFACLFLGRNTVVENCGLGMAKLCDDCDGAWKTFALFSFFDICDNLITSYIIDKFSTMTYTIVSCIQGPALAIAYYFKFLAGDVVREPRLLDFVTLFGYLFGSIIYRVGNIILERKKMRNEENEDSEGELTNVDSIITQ
Procedure, shortened: as §1

PfCRT^3D7 = PfCRT^3D7 (Plasmodium falciparum, UniProt Q8IBZ9); assay: cell-based; conditions: PfCRT3D7 oocytes, normalised to oocyte type control
Chain of PfCRT^3D7 (Q8IBZ9 59-398): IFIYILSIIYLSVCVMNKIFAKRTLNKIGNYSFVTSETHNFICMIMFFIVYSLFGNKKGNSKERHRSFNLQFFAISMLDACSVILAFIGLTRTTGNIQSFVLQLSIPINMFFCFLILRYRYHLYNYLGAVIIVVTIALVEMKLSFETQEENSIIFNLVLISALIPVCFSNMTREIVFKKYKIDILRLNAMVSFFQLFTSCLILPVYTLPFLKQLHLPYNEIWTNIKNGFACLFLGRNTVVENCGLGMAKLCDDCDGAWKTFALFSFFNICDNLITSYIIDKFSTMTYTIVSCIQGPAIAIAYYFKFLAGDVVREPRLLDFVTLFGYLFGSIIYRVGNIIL
Procedure, shortened: as §1

PfCRT^Dd2 [3] = biological target: T1, PfCRT^Dd2; assay: [3H]CQ uptake into Xenopus oocytes, cis-inhibition by unlabelled solute; conditions: PfCRTDd2 oocytes, background [3H]CQ accumulation subtracted, normalised to oocyte type control
Procedure, shortened: (§2)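 Inward transport into oocyte cytosol from pH 5.5 medium models PfCRT efflux from the acidic digestive vacuole. Incubation 1.5 h, 27.5 °C; termination by ice-cold washes; lysate radioactivity counted.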

PfCRT^Ecu1110 [4] = biological target: T2, PfCRT^Ecu1110; assay: as above; conditions: for PfCRT-mediated [3H]CQ transport, cis-inhibition (% PfCRTEcu1110 control): PfCRTEcu1110 oocytes, background [3H]CQ accumulation subtracted, normalised to oocyte type control; for [3H]CQ transport (% PfCRTEcu1110 control), cis-inhibition, PfCRTEcu1110: PfCRT-mediated component (background subtracted), sheet title says normalised to PfCRTDd2 control, mean ± SEM, SEM
Procedure, shortened: as §2

[5] = [test solute]i = 5 mM (intracellular)
[6] = [test solute]i = 45 mM (intracellular; 30 mM for some solutes due to solubility)
[7] = [test solute]i = 5 mM (injected)
[8] = [test solute]i = 45 mM (30 mM for some solutes due to solubility)

| Substance | PfCRT-mediated [3H]CQ transport, trans-stimulation (% PfCRTDd2 control) (PfCRT^Dd2 [1]; [5]) | PfCRT-mediated [3H]CQ transport, trans-stimulation (% PfCRTDd2 control) (PfCRT^Dd2 [1]; [6]) | [3H]CQ transport (% PfCRTDd2 control), trans-stimulation, PfCRTDd2 (PfCRT^Dd2 [1]; [7]) | [3H]CQ transport (% PfCRTDd2 control), trans-stimulation, PfCRTDd2 (PfCRT^Dd2 [1]; [8]) | PfCRT-mediated [3H]CQ transport, trans-stimulation (% PfCRTEcu1110 control) (PfCRT^Ecu1110 [2]; [5]) | PfCRT-mediated [3H]CQ transport, trans-stimulation (% PfCRTEcu1110 control) (PfCRT^Ecu1110 [2]; [6]) | [3H]CQ transport (% PfCRTDd2 control), trans-stimulation, PfCRTEcu1110 (PfCRT^Ecu1110 [2]; [7]) | [3H]CQ transport (% PfCRTDd2 control), trans-stimulation, PfCRTEcu1110 (PfCRT^Ecu1110 [2]; [8]) | PfCRT-mediated [3H]CQ transport, trans-stimulation (% PfCRT3D7 control) (PfCRT^3D7; [5]) | PfCRT-mediated [3H]CQ transport, trans-stimulation (% PfCRT3D7 control) (PfCRT^3D7; [6]) | PfCRT-mediated [3H]CQ transport, cis-inhibition (% PfCRTDd2 control) (PfCRT^Dd2 [3]; [test solute] = 0.5 mM) | PfCRT-mediated [3H]CQ transport, cis-inhibition (% PfCRTDd2 control) (PfCRT^Dd2 [3]; [test solute] = 1 mM) | PfCRT-mediated [3H]CQ transport, cis-inhibition (% PfCRTDd2 control) (PfCRT^Dd2 [3]; [test solute] = 2 mM) | PfCRT-mediated [3H]CQ transport, cis-inhibition (% PfCRTEcu1110 control) (PfCRT^Ecu1110 [4]; [test solute] = 0.5 mM) | PfCRT-mediated [3H]CQ transport, cis-inhibition (% PfCRTEcu1110 control) (PfCRT^Ecu1110 [4]; [test solute] = 1 mM) | PfCRT-mediated [3H]CQ transport, cis-inhibition (% PfCRTEcu1110 control) (PfCRT^Ecu1110 [4]; [test solute] = 2 mM) | [3H]CQ transport (% PfCRTEcu1110 control), cis-inhibition, PfCRTEcu1110 (PfCRT^Ecu1110 [4]; [test solute] = 0.5 mM) | [3H]CQ transport (% PfCRTEcu1110 control), cis-inhibition, PfCRTEcu1110 (PfCRT^Ecu1110 [4]; [test solute] = 1 mM) | [3H]CQ transport (% PfCRTEcu1110 control), cis-inhibition, PfCRTEcu1110 (PfCRT^Ecu1110 [4]; [test solute] = 2 mM) |
| --- | --- | --- | --- | --- | --- | --- | --- | --- | --- | --- | --- | --- | --- | --- | --- | --- | --- | --- | --- |
| PPVQA [PA-5] | 100 ± 4.2 % PfCRTDd2 control | 95 ± 5.6 % PfCRTDd2 control | 100 ± 4.2 % PfCRTDd2 control | 95 ± 5.6 % PfCRTDd2 control | 91 ± 5.7 % PfCRTEcu1110 control | 97 ± 4.4 % PfCRTEcu1110 control | 28 ± 1.7 % PfCRTEcu1110 control | 29 ± 1.4 % PfCRTEcu1110 control | 133 ± 4.6 % PfCRT3D7 control | 178 ± 5.2 % PfCRT3D7 control | 39 ± 1.1 % PfCRTDd2 control | 31 ± 3.1 % PfCRTDd2 control | 19 ± 1.2 % PfCRTDd2 control | 59 ± 2.1 % PfCRTEcu1110 control | 41 ± 1.4 % PfCRTEcu1110 control | 28 ± 0.5 % PfCRTEcu1110 control | 19 ± 0.3 % PfCRTEcu1110 control | 13 ± 0.5 % PfCRTEcu1110 control | 9.0 ± 0.05 % PfCRTEcu1110 control |
| DPENFR [DR-6] | 100 ± 3.7 % PfCRTDd2 control | 112 ± 4.3 % PfCRTDd2 control | 100 ± 3.7 % PfCRTDd2 control | 112 ± 4.3 % PfCRTDd2 control | 118 ± 0.6 % PfCRTEcu1110 control | 127 ± 4.2 % PfCRTEcu1110 control | 36 ± 1.4 % PfCRTEcu1110 control | 38 ± 1.5 % PfCRTEcu1110 control | 137 ± 4.6 % PfCRT3D7 control | 188 ± 5.7 % PfCRT3D7 control | 38 ± 0.3 % PfCRTDd2 control | 30 ± 1.0 % PfCRTDd2 control | 17 ± 0.3 % PfCRTDd2 control | 38 ± 1.3 % PfCRTEcu1110 control | 35 ± 4.2 % PfCRTEcu1110 control | 27 ± 0.1 % PfCRTEcu1110 control |  | 11 ± 0.1 % PfCRTEcu1110 control | 9.0 ± 0.02 % PfCRTEcu1110 control |
